Values of other authors as cited in patent US10092615B2, “Nutritional supplements for improving male fertility” (Fairhaven Health, LLC, priority 2016, dated 2018).

Tests used:
[1] = test system: patients affected by male infertility; conditions: compared to placebo; for forward sperm motility (WMD): 95% CI (0.49, 23.16); for forward sperm motility (WMD) / total sperm motility (WMD): p=0.04; for total sperm motility (WMD): 95% CI (1.72, 13.14); for pregnancy rate (OR): 95% CI (2.08, 8.08), p<0.0001; for semen volume (WMD): 95% CI (−0.02, 0.58), p=0.07; for semen volume (WMD) / sperm concentration (WMD): without significant difference; for sperm concentration (WMD): 95% CI (−4.47, 15.84), p=0.27; for atypical sperm cell (WMD): 95% CI (−7.89, −3.56), p<0.00001
[2] = test system: sperm samples from 22 asthenospermic men; conditions: 50 μM, in vitro incubation
[3] = test system: infertile patients; conditions: given for a mean 103 days

Compound	forward sperm motility (WMD) [1]	total sperm motility (WMD) [1]	pregnancy rate (OR) [1]	semen volume (WMD) [1]	sperm concentration (WMD) [1]	atypical sperm cell (WMD) [1]	sperm motility [2]	standard sperm parameters [3]	fertilization rate ([3]; p<0.05)
CC(=O)O[C@H](CC(=O)[O-])C[N+](C)(C)C [acetyl-L-carnitine]	11.83	7.43	4.10	0.28	5.69	−5.72	–	–	–
C[N+](C)(C)C[C@H](O)CC(=O)[O-] [L-carnitine]	11.83	7.43	4.10	0.28	5.69	−5.72	–	–	–
COC1=C(OC)C(=O)C(C/C=C(\C)CC/C=C(\C)CC/C=C(\C)CC/C=C(\C)CC/C=C(\C)CC/C=C(\C)CC/C=C(\C)CC/C=C(\C)CC/C=C(\C)CCC=C(C)C)=C(C)C1=O [Coenzyme Q10]	–	–	–	–	–	–	significant increases in motility	no significant changes	significant improvement
